Measured values as given in patent US20250195521A1 (Revolution Medicines, Inc., priority 2020, published 2025).
Like-named read-outs stand apart in the source and are kept apart here.

Assays:
[1] = tested on: NCI-H358 (K-Ras G12C); test: CellTiter-Glo cell viability assay, NCI-H358; format: cell-based, human
In short: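 Luminescent CellTiter-Glo read-out on day 5 after compound exposure; signal expressed as percent of mean DMSO control; four-parameter logistic fit gives the value.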

[2] = tested on: K-Ras G12C (NCI-H358 cells); test: Potency assay: pERK in NCI-H358 cells; format: cell-based, human; settings: read-out: pERK EC50 (H358 KRAS G12C)
In short: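 Cells plated the day before were exposed for 4 h at 37° C, 5% CO2 to a 10-point, 3-fold DMSO dilution series (10 mM top stock), in duplicate. Phospho-ERK was read by AlphaLISA SureFire Ultra or by In-Cell Western with DRAQ5 DNA stain, and IC50 came from a 4-parameter sigmoidal fit.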

[3] = Homo sapiens, NCI-H358, 120 h, 5-day treatment, read-out: H358 Cell Viability assay data (K-Ras G12C, IC50)
[4] = Homo sapiens, NCI-H358 cells, 4 hours
[5] = Homo sapiens, NCI-H358, 120 h, read-out: H358 Cell Viability assay data (K-Ras G12C, IC50, uM), 5-day treatment
[6] = 5-day treatment, read-out: H358 Cell Viability assay data (K-Ras G12C, IC50)

SMILES | IC50 [1, 3] [µM] | EC50 [2, 4] [nM] | further results
C=CC(=O)N1CC[C@H](C(=O)N(C)[C@H](C(=O)N[C@H]2Cc3cccc(c3)-c3ccc4c(c3)c(c(-c3cccnc3[C@H](C)OC)n4CC)CC(C)(C)COC(=O)[C@@H]3CCCN(N3)C2=O)[C@@H](C)C(F)(F)F)C1 (atropisomer, axis not shown) [Compound A640] | 0.01 to 0.1 | < 5000 | –
CCn1c(-c2cccnc2[C@H](C)OC)c2c3cc(ccc31)-c1csc(n1)C[C@H](NC(=O)[C@H](C(C)C)N(C)C(=O)N1CC[C@]3(CCN(C)C3=O)C1)C(=O)N1CCC[C@H](N1)C(=O)OCC(C)(C)C2 (single isomer, unassigned) [Compound A461] | < 0.01 | < 5000 | –
C=CC(=O)N1CC[C@H](C(=O)N(C)[C@H](C(=O)N[C@H]2Cc3cc(N)cc(c3)-c3ccc4c(c3)c(c(-c3ccccc3COC)n4CC)CC(C)(C)COC(=O)[C@@H]3CCCN(N3)C2=O)C(C)C)C1 [Compound A2] | > 10 | < 5000 | –
CCn1c(-c2cccnc2[C@H](C)OC)c2c3cc(ccc31)-c1cc(O)cc(c1)C[C@H](NC(=O)[C@H](C(C)C)N(C)C(=O)C1COC1)C(=O)N1CCC[C@H](N1)C(=O)OCC(C)(C)C2 [Compound A18] | 0.1 to 1 | < 5000 | –
C=CC(=O)N1CC[C@H](C(=O)N(C)[C@H](C(=O)N[C@H]2Cc3cc(O)cc(c3)-c3ccc4c(c3)c(c(-c3ccc(CC(=O)O)nc3)n4CC)CC(C)(C)COC(=O)[C@@H]3CCCN(N3)C2=O)C(C)C)C1 [Compound A21] | – | – | IC50 [1, 5]: > 10 µM; EC50 ([2]; Homo sapiens, NCI-H358, 4 h): < 5000 nM
C=CC(=O)N1CC[C@H](C(=O)N(C)[C@H](C(=O)N[C@H]2Cc3cc(O)cc(c3)-c3ccc4c(c3)c(c(-c3ncccc3[C@H](C)OC)n4CC)CC(C)(C)COC(=O)[C@@H]3CCCN(N3)C2=O)C(C)C)C1 [Compound A22] | – | – | IC50 [1, 5]: 0.01 to 0.1 µM; EC50 ([2]; Homo sapiens, NCI-H358, 4 h): < 5000 nM
C=CC(=O)N1CC[C@H](C(=O)N(C)[C@H](C(=O)N[C@H]2Cc3cc(O)cc(c3)-c3ccc4c(c3)c(c(-c3ccccc3CCOC)n4CC)CC(C)(C)COC(=O)[C@@H]3CCCN(N3)C2=O)C(C)C)C1 [Compound A24] | > 10 | < 5000 | –
CCn1c(-c2cnccc2COC)c2c3cc(ccc31)-c1cc(O)cc(c1)C[C@H](NC(=O)[C@H](C(C)C)N(C)C(=O)N1CC(OC)C1)C(=O)N1CCC[C@H](N1)C(=O)OCC(C)(C)C2 [Compound A30] | 0.01 to 0.1 | < 5000 | –
C=CC(=O)N1CC[C@H](C(=O)N(C)[C@H](C(=O)N[C@H]2Cc3cc(O)cc(c3)-c3ccc4c(c3)c(c(-c3ccccc3CCOC)n4C(C)(C)C#N)CC(C)(C)COC(=O)[C@@H]3CCCN(N3)C2=O)C(C)C)C1 [Compound A34] | – | – | IC50 [1, 6]: 0.01 to 0.1 µM; EC50 ([2]; NCI-H358 cells, 4 hours): < 5000 nM
CCn1c(-c2cnccc2COC)c2c3cc(ccc31)-c1cc(O)cc(c1)C[C@H](NC(=O)[C@H](C(C)C)N(C)C(=O)CN1CCOCC1)C(=O)N1CCC[C@H](N1)C(=O)OCC(C)(C)C2 [Compound A65] | 0.1 to 1 | < 5000 | –
CCn1c(-c2ccccc2CCOC)c2c3cc(ccc31)-c1cc(O)cc(c1)C[C@H](NC(=O)[C@H](C(C)C)N(C)C(=O)CCN)C(=O)N1CCC[C@H](N1)C(=O)OCC(C)(C)C2 [Compound A70] | 0.01 to 0.1 | < 5000 | –
CCn1c(-c2cnccc2COC)c2c3cc(ccc31)-c1cc(O)cc(c1)C[C@H](NC(=O)[C@H](C(C)C)N(C)CC(F)(F)F)C(=O)N1CCC[C@H](N1)C(=O)OCC(C)(C)C2 [Compound A77] | 0.01 to 0.1 | < 5000 | –
CCn1c(-c2cnccc2COC)c2c3cc(ccc31)-c1cc(O)cc(c1)C[C@H](NC(=O)[C@H](C(C)C)N(C)C(=O)[C@@H]1CN(C(C)=O)C[C@@H]1C(F)(F)F)C(=O)N1CCC[C@H](N1)C(=O)OCC(C)(C)C2 [Compound A80] | 0.1 to 1 | < 5000 | –
CCn1c(-c2cnccc2COC)c2c3cc(ccc31)-c1cc(O)cc(c1)C[C@H](NC(=O)[C@H](C(C)C)N(C)C(=O)[C@@H]1CCCO1)C(=O)N1CCC[C@H](N1)C(=O)OCC(C)(C)C2 [Compound A91] | < 0.01 | < 5000 | –
CCn1c(-c2cccnc2[C@H](C)OC)c2c3cc(ccc31)-c1cc(O)cc(c1)C[C@H](NC(=O)[C@H](C(C)C)N(C)C(=O)[C@H]1CCN(C(=O)CN(C)C)C1)C(=O)N1CCC[C@H](N1)C(=O)OCC(C)(C)C2 [Compound A95] | 0.01 to 0.1 | < 5000 | –
CC#CC(=O)N1CC[C@H](C(=O)N(C)[C@H](C(=O)N[C@H]2Cc3cc(O)cc(c3)-c3ccc4c(c3)c(c(-c3cccnc3[C@H](C)OC)n4CC)CC(C)(C)COC(=O)[C@@H]3CCCN(N3)C2=O)C(C)C)C1 [Compound A145, (2S)-2-{1-[(3S)-1-(but-2-ynoyl)pyrrolidin-3-yl]-N-methylformamido}-N-[(8S,14S,20M)-22-ethyl-4-hydroxy-21-{2-[(1S)-1-methoxyethyl]pyridin-3-yl}-18, 18-dimethyl-9,15-dioxo-16-oxa-10,22,28-triazapentacyclo [18.5.2.1^2,6.1^10,14.0^23,27]nonacosa-1 (26),2,4,6 (29),20,23 (27),24-heptaen-8-yl]-3-methylbutanamide] | – | – | IC50 [1, 5]: < 0.01 µM; IC50 ([1]; read-out: H358 Cell Viability assay data (K-Ras G12C, IC50), 5-day treatment): 0.01 to 0.1 µM; EC50 ([2]; Homo sapiens, NCI-H358, 4 h): < 5000 nM

SMILES | IC50 [1, 3] [µM] | EC50 [2, 4] [nM] | further results
CCn1c(-c2cccnc2[C@H](C)OC)c2c3cc(ccc31)-c1cc(O)cc(c1)C[C@H](NC(=O)[C@H](C(C)C)N(C)C(=O)C13CNCC1C3)C(=O)N1CCC[C@H](N1)C(=O)OCC(C)(C)C2 (stereo partly drawn) [Compound A155] | < 0.01 | < 5000 | IC50 [1, 6]: 0.01 to 0.1 µM
CCn1c(-c2cccnc2[C@H](C)OC)c2c3cc(ccc31)-c1cc(O)cc(c1)C[C@H](NC(=O)[C@H](C(C)C)N(C)C(=O)C1CC13CC3)C(=O)N1CCC[C@H](N1)C(=O)OCC(C)(C)C2 (stereo partly drawn) [Compound A156] | 0.01 to 0.1 | < 5000 | –
C=CC(=O)N1CC[C@H](C(=O)N(C)[C@H](C(=O)NC2C[C@H]3CN(CCCO3)c3ccc4c(c3)c(c(-c3cccnc3[C@H](C)OC)n4CC)CC(C)(C)COC(=O)[C@@H]3CCCN(N3)C2=O)C(C)C)C1 (stereo partly drawn) [Compound A429] | > 10 | – | –
C=CC(=O)N1CC(OCC(C(=O)N[C@H]2Cc3cc(cc(C(F)F)c3)-c3ccc4c(c3)c(c(-c3cccnc3[C@H](C)OC)n4CC)CC(C)(C)COC(=O)[C@@H]3CCCN(N3)C2=O)C(C)C)C1 (stereo partly drawn) [Compound A450] | > 10 | – | –
CCn1c(-c2cccnc2[C@H](C)OC)c2c3cc(ccc31)-c1csc(n1)C[C@H](NC(=O)[C@H](C(C)C)N(C)C(=O)N1CC([C@H](C)CO)C1)C(=O)N1CCC[C@H](N1)C(=O)OCC(C)(C)C2 [Compound A478] | 0.01 to 0.1 | – | –
CCn1c(-c2cccnc2[C@H](C)OC)c2c3cc(ccc31)-c1csc(n1)C[C@H](NC(=O)[C@H](C(C)C)N(C)C(=O)N1CC3(CC(N4CCOCC4)C3)C1)C(=O)N1CCC[C@H](N1)C(=O)OCC(C)(C)C2 [Compound A486] | 0.1 to 1 | – | –
CCn1c(-c2cccnc2[C@H](C)OC)c2c3cc(ccc31)-c1csc(n1)[C@@H](O)[C@H](NC(=O)[C@H](C(C)C)N(C)C(=O)N1CC(N(C)C)C1)C(=O)N1CCC[C@H](N1)C(=O)OCC(C)(C)C2 [Compound A489] | 0.01 to 0.1 | – | –
C=CC(=O)N1CC[C@H](C(=O)N(C)[C@H](C(=O)N[C@H]2CCC(=O)N(C)Cc3ccc4c(c3)c(c(-c3cccnc3[C@H](C)OC)n4CC)CC(C)(C)COC(=O)[C@@H]3CCCN(N3)C2=O)C(C)C)C1 [Compound A500] | > 10 | – | –
C=CC(=O)N1CC[C@H](C(=O)N(C)[C@H](C(=O)N[C@H]2Cc3cccc(c3)-c3ccc4c(c3)c(c(-c3cc(C5=CCN(C)CC5)cnc3[C@H](C)OC)n4CC)CC(C)(C)COC(=O)[C@@H]3CCCN(N3)C2=O)C(C)C)C1 [Compound A514] | 0.1 to 1 | – | –
C=CC(=O)N1CC[C@H](C(=O)N(C)[C@H](C(=O)N[C@H]2Cc3cccc(c3)-c3ccc4c(c3)c(c(-c3cc(C5CCN(C)CC5)cnc3[C@H](C)OC)n4CC)CC(C)(C)COC(=O)[C@@H]3CCCN(N3)C2=O)C(C)C)C1 [Compound A515] | < 0.01 | – | –
C=CC(=O)N1CC[C@H](C(=O)N(C)[C@H](C(=O)N[C@H]2Cc3nc(cs3)-c3ccc4c(c3)c(c(-c3cc(C5=CCN(C)CC5)cnc3[C@H](C)OC)n4CC)CC(C)(C)COC(=O)[C@@H]3CCCN(N3)C2=O)C(C)C)C1 [Compound A520] | – | – | IC50 [1, 6]: < 0.01 µM
C=CC(=O)N1CC[C@H](C(=O)N(C)[C@H](C(=O)N[C@H]2Cc3cccc(c3)-c3ccc4c(c3)c(c(-c3cc(CN(C)C)cnc3[C@H](C)OC)n4CC)CC(C)(C)COC(=O)[C@@H]3CCCN(N3)C2=O)C(C)C)C1 [Compound A523] | – | – | IC50 [1, 6]: 0.1 to 1 µM
CCn1c(-c2cccnc2[C@H](C)OC)c2c3cc(ccc31)-c1csc(n1)C[C@H](NC(=O)[C@H](C(C)C)N(C)C(=O)N1C3CC1CN(C)C3)C(=O)N1CCC[C@H](N1)C(=O)OCC(C)(C)C2 [Compound A541] | 0.01 to 0.1 | – | –
CO[C@@H](COC1CN(C(=O)C#CC(C)(C)N(C)C)C1)C(=O)N[C@H]1Cc2cccc(c2)-c2ccc3c(c2)c(c(-c2cccnc2[C@H](C)OC)n3CC(F)(F)F)CC(C)(C)COC(=O)[C@@H]2CCCN(N2)C1=O [Compound A556] | < 0.01 | – | –
CCn1c(-c2cccnc2[C@H](C)OC)c2c3cc(ccc31)-c1cccc(c1)C[C@H](NC(=O)[C@H](C(C)C)N1CC[C@]3(CCN(C(=O)C#C[C@]4(N(C)C)CCOC4)C3)C1=O)C(=O)N1CCC[C@H](N1)C(=O)OCC(C)(C)C2 [Compound A559] | < 0.01 | – | –
